Reference: PMC12363179, “Mapping the sialic acid-binding sites of LuIII and H-1 parvovirus” (Journal of Virology, 2025)

Assays:
LuIII VLP (VP2) [1] = biological target: T1, LuIII VLP (VP2) (LuIII virus, UniProt P36310); test: CFG glycan microarray v4.[…], antibody fluorescence; type: binding; details: immobilised glycan; unlabelled VLP 0.2 mg/mL, PBS, room temperature, 1 h
T1 construct: VP2-only virus-like particle without DNA, T=1 icosahedral 60-mer, baculovirus/Sf9; residues 37-587 modelled

LuIII VLP (VP2) [2] = biological target: T1, LuIII VLP (VP2); test: Max-Planck glycan microarray, fluorescence; type: binding; details: immobilised glycan; DyLight488-labelled VLP 0.1 mg/mL, PBS-MK (MgCl2, KCl), 4 °C overnight
Text: Max-Planck glycan microarray, fluorescence on LuIII VLP (VP2)

MVM / MVMp VLP (VP2) = biological target: T2, MVM / MVMp VLP (VP2) (Murine minute virus strain MVM prototype, UniProt P03137); test: Max-Planck glycan microarray, fluorescence; type: binding; details: immobilised glycan; DyLight488-labelled VLP 0.4 mg/mL, PBS-MK (MgCl2, KCl), 4 °C overnight
T2 construct: VP2-only virus-like particle without DNA, T=1 icosahedral 60-mer, baculovirus/Sf9; DyLight488-labelled
Text: Max-Planck glycan microarray, fluorescence on MVM / MVMp VLP (VP2)

[3] = biological target: LuIII virus-like particle (VLP) composed of VP2, the major capsid protein (parvovirus LuIII); test: cryo-EM structure; VLPs of VP2 in 10 mM Tris-HCl, 500 mM NaCl, 8 mM CaCl2, 2 mM MgCl2, pH 7.5, with or without glycan (s(LN)3 or s(Le^x)2); icosahedral reconstruction in cisTEM, 60mer models fitted
[4] = biological target: H-1 parvovirus virus-like particle (VLP) composed of VP2, the major capsid protein (H-1 parvovirus); test: as above

## CC(=O)N[C@H]1[C@H](O[C@H]2[C@@H](O)[C@@H](CO)O[C@@H](O[C@H]3[C@H](O)[C@@H](CO)O[C@@H](OCCN)[C@@H]3NC(C)=O)[C@@H]2O)O[C@H](CO)[C@@H](O[C@@H]2O[C@H](CO)[C@H](O)[C@H](O[C@]3(C(=O)O)C[C@H](O)[C@@H](NC(C)=O)[C@H]([C@H](O)[C@H](O)CO)O3)[C@H]2O)[C@@H]1O [compound 293, Neu5Acα2-3Galβ1-4GlcNAcβ1-3Galβ1-3GlcNAcβ-Sp0]
LuIII VLP (VP2) [1]
  RFU: 728 ± 180 RFU

## Neu5Acα2-3Gαlβ1-4Glcβ-AH [compound 9]
LuIII VLP (VP2) [2]
  RFU: 267 ± 44 RFU
MVM / MVMp VLP (VP2)
  RFU: 109 ± 102 RFU

## LuIII virus-like particle (VLP) composed of VP2, the major capsid protein (natural protein)
[3]
  stoichiometry N: 60

## Fucα1-3(Neu5Acα2-3Gαlβ1-4)GlcNAcβ1-3Gαlβ1-4Glcβ-AH [compound 7]
LuIII VLP (VP2) [2]
  RFU: 151 ± 23 RFU

## Neu5Acα2-6Gαlβ1-4Glcβ-AH [compound 8]
LuIII VLP (VP2) [2]
  RFU: 105 ± 13 RFU

## CC(=O)N[C@H]1[C@H](O[C@H]2[C@@H](O)[C@@H](CO)O[C@@H](O[C@H]3[C@H](O)[C@@H](O)[C@H](OCCCN)O[C@@H]3CO)[C@@H]2O)O[C@H](CO)[C@@H](O)[C@@H]1O[C@@H]1O[C@H](CO)[C@H](O)[C@H](O)[C@H]1O[C@@H]1O[C@@H](C)[C@@H](O)[C@@H](O)[C@@H]1O [compound 65, Fucα1-2Galβ1-3GlcNAcβ1-3Galβ1-4Glcβ-Sp8]
LuIII VLP (VP2) [1]
  RFU: 601 ± 93 RFU

## Neu5Acα2-3Gαlβ1-4GlcNAcβ1-3Gαlβ1-4Glcβ-AH [compound 6]
LuIII VLP (VP2) [2]
  RFU: 106 ± 37 RFU
MVM / MVMp VLP (VP2)
  RFU: 153 ± 24 RFU

## CC(=O)N[C@H]1[C@H](OCCCN)O[C@H](CO)[C@@H](O[C@@H]2O[C@H](CO)[C@H](O)[C@H](O[C@]3(C(=O)O)C[C@H](O)[C@@H](NC(C)=O)[C@H]([C@H](O)[C@H](O)CO)O3)[C@H]2O)[C@@H]1O[C@@H]1O[C@@H](C)[C@@H](O)[C@@H](O)[C@@H]1O [compound 253, Neu5Acα2-3Galβ1-4(Fucα1-3)GlcNAcβ-Sp8]
LuIII VLP (VP2) [1]
  RFU: 1,685 ± 423 RFU

## Neu5Acα2-6Gαlβ1-4GlcNAc-6-sulfαteβ-AH [compound 10]
MVM / MVMp VLP (VP2)
  RFU: 203 ± 36 RFU

## H-1 parvovirus virus-like particle (VLP) composed of VP2, the major capsid protein (natural protein)
[4]
  stoichiometry N: 60
